# Measurements from patent US7709002B1, “Mutated ras peptides for generation of CD8+Cytotoxic T lymphocytes” (The United States of America as represented by the …, priority 1996, dated 2010).
# Read-outs that look alike come from different tables or passages of the source. Where no end group is shown, it is not given here.
# Legend:
# [1] = system: C1R-A2 cell line as target of CD8+ CTL line of RAS patient 32; test: 51Cr-release cytotoxicity of CD8+ CTL line of RAS patient 32 against peptide-pulsed C1R-A2 targets; format: cell-based, human; details: for % Specific Lysis: E/T 20/1, 6 hr
# From the text: (§1) IVS cycles for evaluation of CD8^+ T cell responses from HLA-A2+Patients. Freshly-thawed PBMC (from ras patients 32 and 33), derived pre-vaccination and post-third vaccination, were enriched in T lymphocytes by passage over nylon wool columns (Robbins Scientific, Sunnyvale, Calif.) and then depleted of CD4^+ T cells by negative selection via panning on anti-CD4 MAb-coated T25 flasks (Applied Immune Sciences, Santa Clara, Calif.). For the first IVS cycle, CD8^+ enriched lymphocytes (5×10^5/well) were cultured in 24-well plates with irradiated, autologous PBMC (5×10^6/well) as APC which had been preincubated for 3 hours with the appropriate mutant ras peptide ([…]) plus human β2-microglobulin (10 μg/ml) (Calbiochem, San Diego, Calif.). […] IL-2 (10 U/ml) was added 3 days later. After an additional 7 days, viable cells (2-5×10^5/well) were re-cultured by weekly stimulation with APC pre-pulsed with peptide/β2-microglobulin, and IL-2 added one day later. After the third or fourth IVS cycle, autologous PBMC were replaced with EBV-transformed, autologous BLCL (5×10^5/well) as APC. […] CTL activity was evaluated from cultures 5 to 6 days after Ag restimulation.
# (§2) Cytotoxic response. Cytotoxicity was examined by a conventional ^51Cr-release assay, as described (6). Briefly, target cells (i.e. T2, C1R-A2, BLCL, K562) were radiolabeled with 200 μCi of Na2[^51Cr]04 (Amersham) for 60 minutes at 37° C., followed by thorough washing to remove unincorporated isotope. Effectors and targets (1×10^4/well) were incubated in 96-well, U-bottomed plates (Costar) at various effector target (E/T) ratios in the absence and presence of peptide (+/−monoclonal antibody (MAb) directed against CD4, CD8 or HLA-A2 molecules (clone BB7.2 from ATCC)) for up to 6 hours. After incubation, supernatants were collected using a Supernatant Collection System (Skatron, Sterling, Va.) and radioactivity measured in a γ-counter (Packard Instruments, Downers Grove, Ill.). Cytotoxic activity was defined as percent specific release of ^51Cr and determined by the equation: [(experimentalcpm−spontaneouscpm)/maximumcpm−spontaneouscpm)]×100. Results were expressed as the mean±SEM of triplicate cultures. The C1R-A2 line is a BLCL transfected with the HLA-A2 gene (obtained from Dr. P. Creswell, Yale University) (Storkus et al, 1987 J. Immunol. 138:1657-1659), and K562 is an erythroleukemia cell line (ATCC, Rockville, Md.) used to measure NK activity.
# [2] = system: T2 cell line as target of CD8+ CTL line of RAS patient 32; test: 51Cr-release cytotoxicity of CD8+ CTL line of RAS patient 32 against peptide-pulsed T2 targets; format: cell-based, human; details: peptide 10 μg/ml, IVS cycle 7 (FIG. 5)
# Method: FIG. 5. Cytolytic activity by CD8^+ CTL line of RAS patient 32 is peptide-specific. The CD8^+ CTL line of RAS patient 32 (see FIG. 3) was assayed against the T2 cell line as a target, incubated with and without different ras peptides (10 μg/ml), as shown. In parallel, the extent of NK activity was evaluated against K562 cells. Cytotoxicity was determined by ^51Cr-release, and the results expressed at different E/T ratios following IVS cycle 7. Similar results were observed using the second, independently-derived CD8^+ CTL line as described in Table 6.
# as §1
# as §2, with “The C1R-A2 line is a BLCL transfected with the HLA-A2 gene (obtained from Dr. P. Creswell, Yale University) (Storkus et al, 1987 J. Immunol. 138:1657-1659), and K562 is an erythroleukemia cell line (ATCC, Rockville, Md.) used to measure NK activity.” left out
# [3] = system: SW480 colon carcinoma cell line (HLA-A2+, rasVal12+); test: 51Cr-release cytotoxicity of CTL against SW480 colon carcinoma cells; format: cell-based, human; details: IFN-γ 250 U/ml for 24 hr; no lysis without pretreatment (FIG. 10A)
# Method: (§3) FIGS. 10A and 10B. Anti-ras Val12-specific CTL from patient 29 lyse SW480 tumor targets in the absence of exogenous peptide. FIG. 10A: Anti-ras Val12-specific CD8^+ CTL from patient 29 were assayed against the SW480 colon carcinoma cell line (HLA-A2^+, rasVal12+) in the absence of exogenous peptide, with or without IFN-γ pretreatment (250 U/ml for 24 hr) of the target cells. CD8^+ CTL reactive with the […] peptide were used as an irrelevant effector cell population. Cytotoxicity was determined by ^51Cr-release, and the results expressed at different effector/target ratios. FIG. 10B: In parallel to 10A, anti-ras or anti-MART-1-specific CTL were assayed against SW480 (±IFN-γ pretreatment) at an effector/target ratio of 10/1 in the absence or presence of exogenous peptide (5 μg/ml). […] Flow cytometric analysis of SW480 cells for expression of HLA-A2: untreated=65.4% with MFI of 29.8; IFN-γ-pretreated=99.5% with MFI of 349.6. Flow cytometric analysis of SW480 cells for expression of ICAM-1: untreated=16.0% with MFI of 30.3; IFN-γ-pretreated=98.6% with MFI of 181.9.
# (§4) Cytotoxic response. Cytotoxicity was examined by a conventional ^51Cr-release assay, as described (6). […] After incubation, supernatants were collected using a Supernatant Collection System (Skatron, Sterling, Va.) and radioactivity measured in a γ-counter (Packard Instruments, Downers Grove, Ill.). Cytotoxic activity was defined as percent specific release of ^51Cr and determined by the equation: [(experimentalcpm−spontaneouscpm)/maximumcpm−spontaneouscpm)]×100. Results were expressed as the mean±SEM of triplicate cultures. […]
# Studies were also carried out to determine whether such peptide-induced CD8^+ CTL could recognize a processed form of the corresponding mutant ras protein. […] In contrast to the CD4^+ analysis, which measured lymphoproliferation to soluble protein, the CD8^+ CTL analysis reflected lytic ability against SW480 cells harboring the naturally-occurring mutation in the absence of exogenously added peptide. […]
# SW480 cells = test: Flow cytometric analysis of SW480 cells for HLA-A2 and ICAM-1 after IFN-γ pretreatment; format: cell-based, human
# Method: as §3
# Isolation and preparation of peripheral blood mononuclear cells (PBMC). PBMC were isolated from 50 ml of heparinized whole blood by Ficoll-Hypaque density gradient centrifugation (Lymphocyte Separation Medium; Organon-Teknika, Durham, N.C.) prior to the first vaccination and four weeks after each vaccination. After isolation at each interval, PBMC were cryopreserved under liquid nitrogen in a sterile cocktail of 90% heat-inactivated, pooled human AB serum (Valley Biomedical, Winchester, Va.) and 10% dimethyl sulfoxide (DMSO) (Sigma Chemical Co., St. Louis, Mo.). Basic cellular immune responses to mitogens and antigens were first determined using freshly-thawed, unfractionated PBMC, derived pre-vaccination and post-third vaccination. For all functional assays and cell culture preparation, PBMC were suspended in a RPMI-1640 based-medium, supplemented with 15 mM HEPES buffer (pH 7.4), 2 mM L-glutamine, 0.1 mM non-essential amino acids, 1 mM sodium pyruvate, 50 μM β-mercaptoethanol, 50 μg/ml gentamicin (all from GIBCO/BRL, Gaithersburg, Md.) and 10% heat-inactivated human AB serum (Valley Biomedical). Cell surface phenotype of resting and activated lymphocyte cultures was analyzed by direct immunofluorescence. Cells were treated with the appropriate primary monoclonal antibody (MAb) conjugated to fluorescein isothiocyanate (FITC) (from Pharmingen, San Diego, Calif. or Becton Dickinson, Mountain View, Calif.), fixed with 1% paraformaldehyde and evaluated by flow cytometry using a FACScan (Becton Dickinson) for the percentage of positive cells and mean fluorescent intensity (MFI).
# human HLA-A2 = biological target: T1, human HLA-A2 (Homo sapiens, UniProt P04439, D140Y/D185E/D98H/E176V/E277Q/G131W/G231S/I119V/I121R/I166T/I218V/L300P/L318F/N151K/N90K/P208A/P217A/Q86G/Q94H/R138H/R169H/T345S); test: HLA-A2 binding bioassay on T2 cells (flow cytometry); details: for Immunostaining of T2 cells with Isotype control MAb: no peptide = 84.0
# T1 construct: The 174CEM.T2 cell line (“T2”), (transport deletion mutant); endogenous in cells; host or cells: 174CEM.T2 (T2) human cell line
# [4] = system: peptide-pulsed autologous EBV-B cells; format: cell-based, human
# Method: as §2
# [5] = system: C1R-A2 targets / autologous EBV-B cells as targets of CD8+ CTL line of patient 29; test: 51Cr-release cytotoxicity of CD8+ CTL line of patient 29 against C1R-A2 or autologous EBV-B targets; format: cell-based, human; details: autologous EBV-B targets, IVS cycle 11, effector/target ratio 10/1 (FIG. 9B)
# Method: FIGS. 9A and 9B. Production of a peptide-specific CD8^+ T cell line from post-vaccinated lymphocytes of patient 29. FIG. 9A: A CD8^+ CTL line was established from post-vaccinated PBMC of patient 29 and assayed for peptide specificity against C1R-A2 targets. Cytotoxicity was determined by ^51Cr-release, and the results expressed at different effector/target ratios following IVS cycle 7. FIG. 9B: Using this CD8^+ CTL line, the requirement for HLA-A2 in peptide presentation (by autologous EBV-B cells as targets) was determined in blocking experiments using MAb (clone BB7.2; ascites=1:30 dilution) directed against that molecule (or using an isotype-matched MAb). […] CD4 and CD8 MAbs were as described for FIGS. 8A and 8b. Control lysis in the absence of peptide or in the presence of ras5-14(Gly12) was <3%.
# as §4
# [6] = Post-Immune CD8+ culture, IVS cycle 6, 10-mer peptide 10 μg/ml
# [7] = Post-Immune CD8+ culture, IVS cycle 7, 10-mer peptide 10 μg/ml
# [8] = Post-Immune CD8+ culture, IVS cycle 8, 10-mer peptide 10 μg/ml
# [9] = Post-Immune CD8+ culture, IVS cycle 9, 10-mer peptide 10 μg/ml
# [10] = Pre-Immune CD8+ culture, IVS cycle 6, 10-mer peptide 10 μg/ml
# [11] = Pre-Immune CD8+ culture, IVS cycle 7, 10-mer peptide 10 μg/ml
# [12] = peptide 50 μg/ml + β2-microglobulin 3 μg/ml, overnight 37° C., serum-free
compound,measurement,setting,value
Lys-Leu-Val-Val-Val-Gly-Ala-Asp-Gly-Val [ras5-14(Asp12)],% Specific Lysis,[1]; [6],24 ± 2%
same,% Specific Lysis,[1]; [7],26 ± 2%
same,% Specific Lysis,[1]; [8],67 ± 2%
same,% Specific Lysis,[1]; [9],68 ± 4%
same,% Specific Lysis,[1]; [10],14 ± 0%
same,% Specific Lysis,[1]; [11],0%
same,Sensitization of T2 targets for lysis (in words),[2],sensitized the T2 cell line for lysis
IFN-γ: interferon gamma used to pretreat SW480 target cells,"Lysis of SW480 by anti-rasVal12 CTL after pretreatment of targets, no exogenous peptide",[3],demonstrable cytotoxicity was observed at multiple effector/target ratios
same,SW480 cells positive for HLA-A2,"SW480 cells; IFN-γ-pretreated (250 U/ml, 24 hr), untreated 65.4%",99.5%
same,SW480 cells positive for ICAM-1,"SW480 cells; IFN-γ-pretreated, untreated 16.0%",98.6%
same,HLA-A2 expression on SW480,"SW480 cells; IFN-γ-pretreated, untreated 29.8",349.6 MFI
same,ICAM-1 expression on SW480,"SW480 cells; IFN-γ-pretreated, untreated 30.3",181.9 MFI
YLVVVGADGV [Tyr variant],"Shift in dose-response of target sensitization for lysis vs native peptide, based on half-maximal activity","[1]; anti-ras5-14(Asp12) CTL line, E/T 10/1 (FIG. 11)",three-fold
same,Binding activity to HLA-A2 on T2 cells relative to native ras5-14(Asp12) sequence,human HLA-A2; less dependency for exogenous β2-macroglobulin,higher binding activity than did the native peptide sequence
CC(C)C[C@H](NC(=O)[C@@H](N)CCCCN)C(=O)N[C@H](C(=O)N[C@H](C(=O)N[C@H](C(=O)NCC(=O)N[C@@H](C)C(=O)N[C@@H](CS)C(=O)NCC(=O)N[C@H](C(=O)NCC(=O)N[C@@H](CCCCN)C(=O)N[C@@H](CO)C(=O)O)C(C)C)C(C)C)C(C)C)C(C)C [ras5-17(Cys12)],Specific cytotoxic response of CD4+ T cell line,[4]; CD4+ T cell line of patient 43,no specific cytotoxic response was detected
"CEA571-579: 9 amino acid peptide, HLA-A2-restricted CEA-specific CD8+ CTL epitope, positive control for HLA-A2 binding (CGIQNSVSA; UniProt P06731 571-579, looked up, fragment)",Immunostaining of T2 cells with Isotype control MAb,human HLA-A2; [12],48.4 MFI
same,Immunostaining of T2 cells with MAb against HLA-A2,"human HLA-A2; peptide 50 μg/ml + β2-microglobulin 3 μg/ml, overnight 37° C., serum-free, no peptide = 137.9",679.5 MFI
same,Immunostaining of T2 cells with Pan Class I MAb (W6/32),"human HLA-A2; peptide 50 μg/ml + β2-microglobulin 3 μg/ml, overnight 37° C., serum-free, no peptide = 230.4",991.2 MFI
ras5-14(Gly12): wild-type ras 10-mer peptide positions 5-14 with Gly at position 12 (KLVVVGAGGV),Control lysis,"[1]; IVS cycle 16, effector/target ratio 10/1 (FIG. 7)",< 3%
same,% Specific Lysis,[1]; [6],8 ± 0%
same,% Specific Lysis,[1]; [7],8 ± 1%
same,% Specific Lysis,[1]; [8],10 ± 1%
same,% Specific Lysis,[1]; [9],21 ± 2%
same,% Specific Lysis,[1]; [10],10 ± 1%
same,% Specific Lysis,[1]; [11],0%
same,Sensitization of T2 targets for lysis (in words),[2],failed to stimulate lysis
same,Control lysis,[5],< 3%
same,Immunostaining of T2 cells with Isotype control MAb,human HLA-A2; [12],41.3 MFI
CC(C)C[C@H](NC(=O)[C@@H](N)CCCCN)C(=O)N[C@H](C(=O)N[C@H](C(=O)N[C@H](C(=O)NCC(=O)N[C@@H](C)C(=O)N[C@H](C(=O)NCC(=O)N[C@H](C(=O)NCC(=O)N[C@@H](CCCCN)C(=O)N[C@@H](CO)C(=O)O)C(C)C)C(C)C)C(C)C)C(C)C)C(C)C [ras5-17(Val12)],Specific cytotoxic response of CD4+ T cell line,[4]; CD4+ T cell line of patient 29,did not display specific cytotoxicity
